# Results taken from PMC2360155, “Novel retinoic acid metabolism blocking agents have potent inhibitory activities on human breast cancer cells and tumour growth” (British Journal of Cancer, 2007).
# Tests used:
# [1] = biological target: T1, RXRα (Homo sapiens, UniProt P19793); test: Retinoid receptor competition binding assay, RXRα; conditions: competition with 1.0 nM [3H]-9-cis-RA
# T1 construct: The full-length cDNA clones for RARα, RARβ, RARγ and RXRα were cloned into the prokaryotic expression vector pET29; S-Tag; made in house; host or cells: prokaryotic host (pET29 vector)
# T1 sequence (P19793 1-462): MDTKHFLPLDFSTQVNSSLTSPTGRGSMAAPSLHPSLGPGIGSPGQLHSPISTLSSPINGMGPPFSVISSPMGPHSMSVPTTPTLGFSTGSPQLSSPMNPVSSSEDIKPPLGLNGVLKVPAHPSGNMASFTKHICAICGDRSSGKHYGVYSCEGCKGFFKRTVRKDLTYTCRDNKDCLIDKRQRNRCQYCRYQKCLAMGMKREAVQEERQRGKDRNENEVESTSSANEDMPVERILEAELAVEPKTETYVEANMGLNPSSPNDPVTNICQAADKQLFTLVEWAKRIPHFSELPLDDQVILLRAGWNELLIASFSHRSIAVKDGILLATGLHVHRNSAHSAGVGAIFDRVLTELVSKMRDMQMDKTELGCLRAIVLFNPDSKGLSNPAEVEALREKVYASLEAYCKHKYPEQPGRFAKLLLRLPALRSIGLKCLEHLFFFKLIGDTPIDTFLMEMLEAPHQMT
# [2] = biological target: T2, RARα (Mus musculus, UniProt P11416); test: Transactivation assay (RARE-CAT reporter, CV-1 cells), RARα; format: cell-based; conditions: 50% of maximal activity obtained with 10^−6 M all-trans-RA
# T2 sequence (P11416 1-462): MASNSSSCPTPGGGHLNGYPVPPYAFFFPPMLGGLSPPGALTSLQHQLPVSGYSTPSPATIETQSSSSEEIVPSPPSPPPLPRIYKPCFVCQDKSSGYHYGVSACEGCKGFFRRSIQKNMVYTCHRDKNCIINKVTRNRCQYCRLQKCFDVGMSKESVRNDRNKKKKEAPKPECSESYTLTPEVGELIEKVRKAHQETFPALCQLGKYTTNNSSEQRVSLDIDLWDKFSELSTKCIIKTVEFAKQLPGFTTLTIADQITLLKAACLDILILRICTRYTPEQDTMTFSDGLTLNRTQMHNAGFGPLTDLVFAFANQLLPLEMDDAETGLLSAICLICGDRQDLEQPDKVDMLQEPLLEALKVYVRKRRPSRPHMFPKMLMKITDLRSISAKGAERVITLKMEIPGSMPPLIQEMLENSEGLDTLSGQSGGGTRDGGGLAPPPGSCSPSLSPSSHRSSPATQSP
# Procedure: Briefly, CV-1 cells were cotransfected with 4 μg RAR subtype (RARα, RARβ or RARγ) expression vector construct in pSG5, 4 μg RARE-CAT reporter DNA and 1 μg pCMV-β-gal DNA. Twenty-four hours following transfection, the cells were treated with various concentrations of each RAMBA ranging from 10^−11–10^−5 M along with an ethanol carrier control. Additional cells were treated with 10^−6 M all-trans-RA for normalisation. Twenty-four hours later, the cells were harvested and CAT and β-gal activities were assayed.
# [3] = system: CK 8/18; test: Western immunoblotting for CK 8/18 in MCF-7 and T47D cells; format: cell-based, human; conditions: 6 days; for Increase in expression of CK 8/18 compared with control: 1 and 5 μM, MCF-7 and T47D cells; for Effect on expression of CK 8/18 (in words): 5 μM, MCF-7 cells
# Procedure: At the end of the treatment, cells were scrapped and collected by washing with ice-cold PBS in a centrifuge tube. Cells were centrifuged at 2500 r.p.m. for 10 min, the pellet was again washed with ice-cold PBS and centrifuged. The cell pellet was then suspended in chilled cell lysis buffer (0.1 M Tris–HCl, 0.5% Triton X-100, protease inhibitor cocktail) and sonicated on ice for 10–15 s. The homogenate was kept on ice for 30 min and then centrifuged at 13 000 r.p.m. for 30 min. The supernatant was used as cell lysate. The cell lysates were stored at −80°C. Protein concentration of the cell lysates was determined using Bio-Rad protein assay reagents.
# Protein lysates from MCF-7 and T47D cells were subjected to sodium dodecyl sulphate–polyacrylamide gel electrophoresis (SDS–PAGE) and immunoblotted for different proteins. Equal amounts of protein (25–50 μg) were subjected to SDS–PAGE at 60 V for 3 h using the mini PROTEAN3 electrophoresis module assembly (Bio-Rad, Hercules, CA, USA), and transferred to nitrocellulose membranes (Hybond ECL, Amersham). Immunodetections were carried out using antibodies against CK 8/18 (1° antibody – 1 : 8000 in 10% milk PBST), E-cadherin (1° antibody – 1 : 1000 in 5% milk in TBST) and ER-α (1° antibody – 1 : 200 in 5% milk PBST) purchased from Santa Cruz Biotechnology Inc. Antibodies against PARP (1° antibody – 1 : 1000 in 5% milk TBST), cyclin- D1 (1° antibody – 1 : 2000 in 10% milk TBST), caspase-9 (1° antibody – 1 : 1000 in 10% milk TBST) and BAD (1° antibody – 1 : 1000 in 5% BSA TBST) were obtained from Cell Signaling Technology. Antibody for β-actin was obtained from Calbiochem (CA, USA). Secondary anti-mouse IgG HRP conjugate antibody was purchased from Calbiochem and Bio-Rad. Secondary anti-rabbit IgG HRP conjugate antibody was bought from Bio-Rad as well as from Kirkegaard and Perry laboratories (Gaithersburg, MD, USA). Immunoreactive bands were visualised using the enhanced chemiluminescence detection reagents and analysis system (Amersham Bioscences) according to the manufacturer's instructions and quantified by densitometry using ImageQuant software version 5.
# The effects of these agents on the expression levels of markers associated with differentiation (CK 8/18 and ER-α) were investigated following established procedures ([Jing et al, 1996]; [Korsching et al, 2002]; [Kim and Freeman, 2003]; [Woelfle et al, 2004]). […] At the end of the treatment, cell lysates were prepared and the expression of cytoskeletal proteins CK 8/18 were evaluated by Western immunoblotting. […] Unexpectedly, VN/66-1 and VN/69-1 caused downregulation in the expression of CK 8/18.
# Numbers below the blot show fold increase in expression of the protein as analysed by ImageQuant densitometry analysis. […]
# [4] = system: MCF-7 cells; design: method as in Patel et al. (2004); conditions: inhibition of cell proliferation by 50%; ref Patel et al. (2004); read-out: Cellular IC50, MCF-7; cited from earlier work
# [5] = system: T47D cells; design: method as in Patel et al. (2004); conditions: inhibition of cell proliferation by 50%; ref Patel et al. (2004); read-out: Cellular IC50, T47D; cited from earlier work
SMILES,IC50 [1] [µM],EC50 [2] [µM],Increase in expression of CK 8/18 compared with control [3],IC50 [4] [µM],IC50 [5] [µM],Effect on expression of CK 8/18 (in words) [3]
CC1=C(/C=C/C(C)=C/C=C/C(C)=C/C(=O)O)C(C)(C)CCC1n1ccnc1 (centres unmarked) [VN/14-1],> 0.5,0.3,2–3 fold,0.493,0.003,
"CC1=C(/C=C/C(C)=C/C=C/C(C)=C/C(=O)O)C(C)(C)CCC1 [ATRA, all-trans-retinoic acid, reference compound]",,,2–3 fold,0.585,0.008,
CC1=C(/C=C/C(C)=C/C=C/C(C)=C/C(=O)Nc2ccc(O)cc2)C(C)(C)CCC1n1ccnc1 (centres unmarked) [VN/66-1],> 0.5,> 10,,0.591,0.57,downregulation
CC1=C(/C=C/C(C)=C/C=C/C(C)=C\C(=O)Nc2ccc(O)cc2)C(C)(C)CCC1n1ccnc1 (centres unmarked) [VN/69-1],> 0.5,> 10,,0.609,,downregulation
